The nature of the series: Solubility of ganaxolone using water soluble beta cyclodextrins. The class given is physicochemical. The conditions noted are these: water soluble beta cyclodextrins (beta-sulfobutyl-cyclodextrin, 2-hydroxypropylbetacyclodextrin). The text has this:
Ganaxolone formulations suitable for intramuscular, subcutaneous, or intravenous injection may comprise physiologically acceptable sterile aqueous or non-aqueous solutions, dispersions, suspensions or emulsions, and sterile powders for reconstitution into sterile injectable solutions or dispersions. Examples of suitable aqueous and non-aqueous carriers, diluents, solvents, or vehicles including water, ethanol, polyols (propylene glycol, polyethylene-glycol, glycerol, cremophor and the like), suitable mixtures thereof, vegetable oils (such as olive oil) and injectable organic esters such as ethyl oleate. Additionally, Ganaxolone can be dissolved at concentrations of >1 mg/ml using water soluble beta cyclodextrins (e.g. beta-sulfobutyl-cyclodextrin and 2-hydroxypropylbetacyclodextrin. Proper fluidity can be maintained, for example, by the use of a coating such as lecithin, by the maintenance of the required particle size in the case of dispersions, and by the use of surfactants. Ganaxolone formulations suitable for subcutaneous injection may also contain additives such as preserving, wetting, emulsifying, and dispensing agents. Prevention of the growth of microorganisms can be ensured by various antibacterial and antifungal agents, such as parabens, benzoic acid, benzyl alcohol, chlorobutanol, phenol, sorbic acid, and the like. […]

Each structure is given as a SMILES string. Bounds are passed on as bounds.

`CC(=O)[C@H]1CC[C@H]2[C@@H]3CC[C@H]4C[C@](C)(O)CC[C@]4(C)[C@H]3CC[C@]12C` [Ganaxolone, 3α-hydroxy-3β-methyl-5α-pregnan-20-one] had a concentration dissolved of more than 1000 µg/mL.

Source of the values: patent publication US9029355B2, “Solid ganaxolone compositions and methods for the making and use thereof” (Marinus Pharmaceuticals, priority 2005, dated 2015).
